Common to all, as to assay type: cell-based
In experiment [1] the test system is Enterococcus faecium VRQR (vancomycin resistant, quinolone resistant). The experiment can be described thus: MIC, agar dilution method, Mueller-Hinton agar with 5% defibrinated horse blood. Particulars: 35° C., 5% CO2, 24 hours. Here is the method: (§1) The following in vitro results were obtained based on an agar dilution method except for C. pneumoniae. The activity is presented as the minimum inhibitory concentration (MIC).
(§2) Streptococci and enterococci were tested on Mueller-Hinton agar supplemented with 5% defibrinated horse blood, using an approximate inoculum of 1×10^4 cfu/spot an incubation temperature of 35° C. in an atmosphere of 5% CO2 for 24 hours. The MIC was defined as the lowest concentration at which no visible bacterial growth was observed.

Experiment [2] deals with Streptococcus pneumoniae IID553. The description is as above. The following applies: 35° C., 5% CO2, 24 hours. As for the experimental part:
as §1, §2

The test system of experiment [3] is Streptococcus pneumoniae PRQR (penicillin resistant, quinolone resistant). The experiment is described as above. Particulars: 35° C., 5% CO2, 24 hours. As for the experimental part:
as §1, §2

The subject of experiment [4] is Streptococcus pyogenes IID692. The experiment is described as above. The following applies: 35° C., 5% CO2, 24 hours. Here is the method: as §1, §2
Experiment [5] concerns Moraxella catarrhalis ATCC25238. The experiment can be described thus: MIC, agar dilution method, Mueller-Hinton agar. Particulars: 1×10^4 cfu/spot, 35° C., 24 hours. As for the experimental part:
as §1
(§3) S. aureus and M. catarrhalis were tested on Mueller-Hinton agar, using an approximate inoculum of 1×10^4 cfu/spot an incubation temperature of 35° C. for 24 hours. The MIC was defined as the lowest concentration at which no visible bacterial growth was observed.

Experiment [6] deals with Staphylococcus aureus CR (chloramphenicol resistant). The experiment can be described thus: MIC, agar dilution method, Mueller-Hinton agar. The following applies: 1×10^4 cfu/spot, 35° C., 24 hours. Here is the method:
as §1, §3

Experiment [7] has as its system Staphylococcus aureus MR (methicillin resistant). The experiment can be described thus: MIC, agar dilution method, Mueller-Hinton agar. The following applies: 1×10^4 cfu/spot, 35° C., 24 hours. As for the experimental part: as §1, §3
For experiment [8], the system named is Staphylococcus aureus Smith. The experiment can be described thus: MIC, agar dilution method, Mueller-Hinton agar. The following applies: 1×10^4 cfu/spot, 35° C., 24 hours. Here is the method:
as §1, §3

Structures are written as SMILES. Converted amounts (≈) assume the structure as drawn.

`CC(=O)NC[C@H]1CN(c2ccc([C@@]3(C#N)[C@@H]4CCC[C@@H]43)cc2)C(=O)O1` [Example 1, N-[5(S)-3-[4-[(1α,5α,6β)-(6-Cyanobicyclo[3.1.0]hexan-6-yl)]phenyl]-2-oxooxazolidin-5-ylmethyl]acetamide]: the minimum inhibitory concentration (MIC) in experiment [1] came out at 0.25 µg/mL (≈ 0.737 µM); in experiment [2] it was 0.5 µg/mL (≈ 1.47 µM); in experiment [3], 0.25 µg/mL (≈ 0.737 µM); in experiment [4] it was 0.5 µg/mL (≈ 1.47 µM); in experiment [5], 0.5 µg/mL (≈ 1.47 µM); in experiment [6], 2 µg/mL (≈ 5.89 µM). The MIC in experiment [7] and in experiment [8] was 0.25 µg/mL (≈ 0.737 µM) throughout.
As to `CC(=O)NC[C@H]1CN(c2ccc([C@@]3(C#N)[C@@H]4CN(C(=O)CO)C[C@@H]43)cc2)C(=O)O1` [Example 8, N-[5(S)-3-[4-[(1α,5α,6β)-(6-Cyano-3-hydroxyacetyl-3-azabicyclo[3.1.0]hexan-6-yl)]phenyl]-2-oxooxazolidin-5-ylmethyl]acetamide], the MIC was determined as 0.5 µg/mL (≈ 1.25 µM) in experiment [1]; 0.5 µg/mL (≈ 1.25 µM) in experiment [2]; 0.5 µg/mL (≈ 1.25 µM) in experiment [3]; 0.5 µg/mL (≈ 1.25 µM) in experiment [4]; 2 µg/mL (≈ 5.02 µM) in experiment [5]; 2 µg/mL (≈ 5.02 µM) in experiment [6]. The minimal inhibitory concentration (MIC) in experiment [7] and in experiment [8] was 1 µg/mL (≈ 2.51 µM) in each case.
Consider `CC(=O)NC[C@H]1CN(c2ccc([C@@]3(C#N)[C@@H]4CN(S(C)(=O)=O)C[C@@H]43)cc2)C(=O)O1` [Example 9, N-[5(S)-3-[4-[(1α,5α,6β)-(6-Cyano-3-methanesulfonyl-3-azabicyclo[3.1.0]hexan-6-yl)]phenyl]-2-oxooxazolidin-5-ylmethyl]acetamide], for which the minimal inhibitory concentration (MIC) in experiment [1] turned out to be 0.5 µg/mL (≈ 1.19 µM); in experiment [2], 0.5 µg/mL (≈ 1.19 µM); in experiment [3], 0.5 µg/mL (≈ 1.19 µM); in experiment [4], 0.5 µg/mL (≈ 1.19 µM); in experiment [5], 2 µg/mL (≈ 4.78 µM); in experiment [6], 1 µg/mL (≈ 2.39 µM). For the same molecule, the minimum inhibitory concentration (MIC) in experiment [7] and in experiment [8] was 0.5 µg/mL (≈ 1.19 µM) each time.
For the molecule `CC(=O)NC[C@H]1CN(c2ccc([C@@]3(C#N)[C@@H]4CN(C#N)C[C@@H]43)cc2)C(=O)O1` [Example 11, N-[5(S)-3-[4-[(1α,5α,6β)-(3,6-Dicyano-3-azabicyclo[3.1.0]hexan-6-yl)]phenyl]-2-oxooxazolidin-5-ylmethyl]acetamide], the MIC in experiment [1] was determined as 0.25 µg/mL (≈ 0.684 µM); in experiment [2], 0.25 µg/mL (≈ 0.684 µM); in experiment [3], 0.25 µg/mL (≈ 0.684 µM); in experiment [4], 0.125 µg/mL (≈ 0.342 µM); in experiment [5] it was 1 µg/mL (≈ 2.74 µM); in experiment [6] it was 1 µg/mL (≈ 2.74 µM). Besides, the results for the MIC in experiment [7] and in experiment [8] were 0.5 µg/mL (≈ 1.37 µM) and 0.25 µg/mL (≈ 0.684 µM), respectively.
Regarding `CC(=O)NC[C@H]1CN(c2ccc(N3CCOCC3)c(F)c2)C(=O)O1` [Linezolid, reference compound], the MIC in experiment [1] was 2 µg/mL (≈ 5.93 µM); in experiment [2], 2 µg/mL (≈ 5.93 µM); in experiment [3] it was 1 µg/mL (≈ 2.96 µM); in experiment [4] it was 1 µg/mL (≈ 2.96 µM); in experiment [5], 4 µg/mL (≈ 11.9 µM); in experiment [6] it was 16 µg/mL (≈ 47.4 µM). Besides, the MIC in experiment [7] and in experiment [8] was 1 µg/mL (≈ 2.96 µM) in each case.

The values are drawn from US20060247286A1, “Oxazolidinone antibiotics and derivatives thereof” (priority 2003, published 2006).
